Test results taken from patent US4542137A, “Alkylaminodesoxy-1.4;3.6-dianhydrohexitol nitrates substituted by purine bases and pharmaceutical compositions” (priority 1980, dated 1985).
Where two headings read alike, the source gives them in different places.

Columns and labels:
[1] = system: isolated rat aorta preparations; test: spasmolytic effectiveness on isolated rat aorta preparations (noradrenaline- and potassium chloride-induced contractions)
[2] = system: isolated guinea pig hearts; test: coronary flowthrough-increasing effectiveness on isolated guinea pig hearts according to Langendorff; details: Cavia porcellus, 25 μg/ml in tyrode solution, Langendorff heart; for activation at 25 µg/mL: read-out: flowthrough (coronary), percentage change in comparison with the initial value
Experimental: After achieving the stationary state in the 30th minute, the hearts were each infused with 50 ml. tyrode solution with a content of test substance of, in each case, 25 μg./ml. Each test substance was tested on 3-6 hearts.
In each case, there was measured the inotropism, the flowthrough and the frequency, whereby the values given in Table I are average values of the percentage changes in comparison with the starting values.

[3] = examination of acute toxicity, i.v., female NMRI-albino mice; format: in vivo; details: mouse, in vivo, iv, mice, 24 hours; read-out: Evaluated LD50-range
Experimental: (§1) . The compounds were injected to at least 3 animals per dose. If no animal had yet been died following to the highest dose which was administered, no more doses of substances were tested. In case of doubt, the examination was repeated with at least 3 more animals applying the same dose.
(§2) The rate of death within 24 hours after administration was observed.
(§3) In table IX, the determined rates of death as well as the LD50 -ranges evaluated therefrom are shown.

female NMRI-albino mice = test: as above; format: in vivo; details: within 24 hours; for Frequency of death with an intravenous dose of 50 mg/kg: 50 mg/kg i.v.; for Frequency of death with an intravenous dose of 100 mg/kg: 100 mg/kg i.v.; for Frequency of death with an intravenous dose of 200 mg/kg: 200 mg/kg i.v.
Experimental: as §1, §2, §3

[4] = read-out: ED50 for spasmolytic action, Noradrenaline spasm (50% inhibition)
[5] = read-out: ED50 for spasmolytic action, potassium chloride spasm (50% inhibition)
[6] = read-out: frequency, percentage change in comparison with the initial value
[7] = read-out: inotropism, percentage change in comparison with the initial value

Structure (SMILES)	IC50 [1, 4] [µM]	IC50 [1, 5] [µM]	activation at 25 µg/mL [2] [%]	percent change from initial value at 25 µg/mL [2, 6] [%]	inhibition at 25 µg/mL [2, 7] [%]	inhibition at 25 µg/mL [2, 6] [%]	LD50 at 24 h [3] [mg/kg]	Frequency of death with an intravenous dose of 50 mg/kg (female NMRI-albino mice)	Frequency of death with an intravenous dose of 100 mg/kg (female NMRI-albino mice)	Frequency of death with an intravenous dose of 200 mg/kg (female NMRI-albino mice)
Nc1ncnc2c1ncn2CCCN[C@H]1CO[C@H]2[C@@H]1OC[C@@H]2O[N+](=O)[O-] [Example 14, 5-(3-Adenin-9-ylpropyl)-amino-5-desoxy-1.4;3.6-dianhydro-L-iditol 2-nitrate]	1.4	43.9	55.8	0	-3.8					
Cn1c(=O)c2c(ncn2CCCCCCN[C@H]2CO[C@H]3[C@@H]2OC[C@@H]3O[N+](=O)[O-])n(C)c1=O [Example 5, 5-(6-Theophyllin-7-ylhexyl)-amino-5-desoxy-1.4;3.6-dianhydro-L-iditol 2-nitrate]	0.36	2.4	61.9		43.3	11.1	≥ 100	0/10	4/10	10/10
CC(C)Cn1c(=O)n(C)c(=O)c2c1ncn2CCCN[C@H]1CO[C@H]2[C@@H]1OC[C@@H]2O[N+](=O)[O-] [Example 8c, 5-[3-(3-Isobutyl-1-methylxanthin-7-yl)-propylamino]-5-desoxy-1.4;3.6-dianhydro-L-iditol 2-nitrate]							100 to 200		0/3	11/13
Nc1ncnc2c1ncn2CCCCCCN[C@H]1CO[C@H]2[C@@H]1OC[C@@H]2O[N+](=O)[O-] [Example 17, 5-(6-Adenin-9-ylhexyl)-amino-5-desoxy-1.4;3.6-dianhydro-L-iditol 2-nitrate]			60.6		11.5	3.6	50 to 100	0/10	2/3	3/3
Cn1c(=O)c2c(ncn2CCCCCN[C@H]2CO[C@H]3[C@@H]2OC[C@@H]3O[N+](=O)[O-])n(C)c1=O [Example 4, 5-(5-Theophyllin-7-ylpentyl)-amino-5-desoxy-1.4;3.6-dianhydro-L-iditol 2-nitrate]	2.7	3.8	55.7		5.44	8.41	100 to 200		0/10	10/10
Cn1c(=O)c2c(ncn2CCCN[C@H]2CO[C@H]3[C@@H]2OC[C@H]3O[N+](=O)[O-])n(C)c1=O [Example 11d, 2-(3-Theophyllin-7-ylpropyl)-amino-2-desoxy-1.4;3.6-dianhydro-D-glucitol 5-nitrate]							> 200			0/6
Cn1c(=O)c2c(ncn2CCCN[C@@H]2CO[C@H]3[C@@H]2OC[C@H]3O[N+](=O)[O-])n(C)c1=O [Example 12d, 5-(3-Theophyllin-7-ylpropyl)-amino-5-desoxy-1.4;3.6-dianhydro-D-mannitol 2-nitrate]							> 200			0/6
Cn1c(=O)c2c(ncn2CCN[C@H]2CO[C@H]3[C@@H]2OC[C@@H]3O[N+](=O)[O-])n(C)c1=O [Example 2, 5-(2-Theophyllin-7-ylethyl)-amino-5-desoxy-1.4;3.6-dianhydro-L-iditol 2-nitrate]	4.2	30.5	34.7		4.6	-3.5	≥ 200		0/3	1/3
Cn1c(=O)c2c(ncn2CC(O)CN[C@H]2CO[C@H]3[C@@H]2OC[C@@H]3O[N+](=O)[O-])n(C)c1=O (stereo partly drawn) [Example 6, 5-(2-Hydroxy-3-theophyllin-7-ylpropyl)-amino-5-desoxy-1.4;3.6-dianhydro-L-iditol 2-nitrate]	1.12	18	53.3		-4.5	-3.39				
Cn1cnc2c1c(=O)n(CCCN[C@H]1CO[C@H]3[C@@H]1OC[C@@H]3O[N+](=O)[O-])c(=O)n2C [Example 7c, 5-[3-(3,7-Dimethylxanthin-1-yl)-propylamino]-5-desoxy-1.4;3.6-dianhydro-L-iditol 2-nitrate]			28.9	0	-10.5		> 200			0/6
Nc1ncnc2c1ncn2CCCCN[C@H]1CO[C@H]2[C@@H]1OC[C@@H]2O[N+](=O)[O-] [Example 15, 5-(4-Adenin-9-ylbutyl)-amino-5-desoxy-1.4;3.6-dianhydro-L-iditol 2-nitrate]			47.1		-3.85	3.45	< 50	3/3	3/3	3/3
Cn1c(=O)c2c(ncn2CCCCN[C@H]2CO[C@H]3[C@@H]2OC[C@@H]3O[N+](=O)[O-])n(C)c1=O [Example 3, 5-(4-Theophyllin-7-ylbutyl)-amino-5-desoxy-1.4;3.6-dianhydro-L-iditol 2-nitrate]	2.6	3.6	36.4		3.82	4.8	> 200			0/6
Nc1ncnc2c1ncn2CCN[C@H]1CO[C@H]2[C@@H]1OC[C@@H]2O[N+](=O)[O-] [Example 13, 5-(2-Adenin-9-ylethyl)-amino-5-desoxy-1.4;3.6-dianhydro-L-iditol 2-nitrate]			12.2	0	-2.3		> 200			0/6
Cn1c(=O)c2c(ncn2CCCN[C@@H]2CO[C@H]3[C@@H]2OC[C@@H]3O[N+](=O)[O-])n(C)c1=O [Example 10c, 5-(3-Theophyllin-7-ylpropyl)-amino-5-desoxy-1.4;3.6-dianhydro-D-glucitol 2-nitrate]			13		6.4	5.6	> 200			0/6
Nc1ncnc2c1ncn2CCCCCN[C@H]1CO[C@H]2[C@@H]1OC[C@@H]2O[N+](=O)[O-] [Example 16, 5-(5-Adenin-9-ylpentyl)-amino-5-desoxy-1.4;3.6-dianhydro-L-iditol 2-nitrate]			22.5		-6.5	6.8	100 to 200		0/10	10/10
